Where “and” joins values, the source holds several entries; their conditions need not be identical. Identical values can stand only once. Like-named read-outs stand apart in the source and are kept apart here. Bounds are passed on as bounds.

For data set [1] the following is noted: colon of a baboon, cited from earlier work.
The conditions of data set [2]: bile salts; cited from earlier work.
Data set [3] is described as follows: Buccal delivery of insulin in dogs: blood glucose. It counts as in vivo, dog (mongrel dogs). Conditions: 5 U/kg. The procedure:
(§1) Bilayer tablets prepared according to Examples 13-15 were tested in in vivo experiments to determine their effectiveness in delivering peptide X systemically to dogs. Mongrel dogs each weighing 30-35 kg were conditioned for one month prior to use. The dogs were mildly sedated with acepromazine, but were awake for the duration of each experiment. Tablets were attached to the gingiva with the active layer contacting and in drug transfer relationship to the buccal mucosa of the upper lip. Nylon muzzles were used to prevent the animals from licking the tablets. In this model, normal salivary functions were preserved and no irrigation was required. The saphenous vein was catheterized to permit venous blood sampling. Blood samples were collected into citrate "[…]" tubes and immediately chilled on ice for 15 minutes and then centrifuged for 10 minutes at 3400 rpm. The resultant supernatant plasma was then collected and stored in capped polypropylene tubes at -70° C. until analyzed for peptide X content.
The procedure of Example 16 was followed with insulin-containing tablets prepared according to Example 6. The results shown in FIG. 8 are the average of 4 dogs, each given one 0.375 inch diameter buccal tablet containing 5 U/kg of drug. […] Beginning about 60 minutes after application, the blood glucose levels start to rise again, reaching normal levels about 120 minutes after application.

The conditions of data set [4]: in vivo; cited from earlier work.
Data set [5] is described as follows: Plasma GLP-1(7-36)amide pharmacokinetics after buccal bilayer tablet. It counts as in vivo, human (healthy volunteers). An excerpt:
(§2) This example describes a double-blind, placebo-controlled, crossover comparison with random assignment to treatment sequence. […] Inclusion criteria for the volunteers were normal glucose tolerance, weight within 22<BMI<26, informed consent to participate in the study, and age between 20 and 60 years. Exclusion criteria were impaired glucose tolerance (2-hour glucose tolerance test; OGTT), gastrointestinal symptoms, ongoing medication or illness, acute infection, abnormal laboratory variables (hemoglobin, hematocrit, leucocytes, creatinine, bilirubin, calcium, potassium, sodium, alkaline phosphatase, gamma-GT, SGOT, SGPT, cholesterol, and triglycerides), and blood pressure greater than 185 mmHg systolic and/or 90 mmHg diastolic.
(§3) Subjects were instructed to fast the night before a treatment. At the clinic, the subjects were given either a drug-containing bilayer tablet or placebo. At time 0 the bilayer tablet was applied to the gingiva with the active layer in contact with the tissue of the lip or inside of the cheek, and the subjects were placed in a rest position. The bilayer tablet was removed after 4.5 hours. No meals were allowed until a standard meal was given after 4.5 hours, and snacks were not permitted at any time. The standard meal contained 550 kcal, with 28%, 22%, and 50% of the energy from protein, fat, and carbohydrate, respectively. The test continued until 8 hours after application of the bilayer tablet, and the subjects left the hospital after 9 hours. The subjects were given their medications in the clinic by a nurse and were under observation at all times. Any symptoms or sensations disturbing or impairing the subjects' wellbeing during the experiments was carefully documented. Standard safety variables were determined under fasting conditions before each experiment. Blood glucose was monitored frequently and glucose infusion was available in case of hypoglycemia (<2.5 mmol/L). If any subject were to experience hypoglycemic symptoms, an extra blood glucose determination would be taken for safety reasons A washout period of 1-4 days was allowed between each experiment The study was completed within 6 weeks after enrollment of the first volunteer.
(§4) The peptide content of bilayer tablet samples was also analyzed by HPLC. […] Results were tested for normal distribution. A two-tailed t-test was carried out for normally distributed samples, and a Wilcoxon rank-sum test was used for data that were not normally distributed. All statistical tests used a level of significance of 0.05.
This was done in comparison to published data.
The data summarized in FIG. 5 were analyzed by AUC to provide an estimate of relative bioavailability by buccal administration as compared to subcutaneous administration.

Data set [6] can be described thus: Buccal bilayer tablet, double-blind placebo-controlled crossover: blood glucose, plasma insulin and glucagon. It counts as in vivo, human (healthy volunteers).
Description: as §2
Subject numbers were allotted to the subjects in the order in which they were enrolled in the study. The number allotted to each subject determined the treatment sequence received. Subjects receiving treatment sequence 1 were treated with drug followed by placebo, and subjects receiving treatment sequence 2 were treated with placebo followed by drug.
as §3, §4

Data set [7] can be described thus: Buccal delivery of salmon calcitonin in dogs. The data set is classed as in vivo, dog (mongrel dogs). Details: AUC infinity, buccal / AUC infinity, iv: concentration or dose not given beside the values. The procedure:
as §1
The procedure of Example 16 was followed with the exception that salmon calcitonin was substituted for peptide X, and tablet sizes and numbers were varied in some experiments.

The conditions of data set [8]: intravenous infusion, fasting individuals; cited from earlier work.
A short description of data set [9]: Subcutaneous GLP-1 in fasting subjects (study by M. A. Nauck, FIG. 6), regression analysis. It counts as in vivo, human (fasting subjects). An excerpt:
This could be due to changes in bioavailability with dose, changes in clearance with dose, or a combination of both effects.

[10] abbreviates: average of 4 dogs, one 0.375 inch buccal tablet, FIG. 8.
Where [11] appears, read: buccal bilayer tablet, 400 μg, FIG. 5.
Setting [12] is: individual subjects 901-908 and mean, buccal, dose 119 nmol.
Setting [13] is: buccal bilayer tablet, 400 μg, FIG. 3.
Setting [14] is: buccal bilayer tablet, 400 μg, FIG. 4.
The mark [15] stands for this setting: buccal bilayer tablet, 400 μg, fasting, FIG. 2.

With heparin, in data set [1] (with sodium cholate or deoxycholate), the “Activity with bile salts in the formulation” value is listed as “significant activity is detected”. Besides, the “Transmucosal intestinal delivery (partial thromboplastin time prolongation or plasma lipase release)” value in data set [1] (without bile salt) is “not apparent”.

Turning to `C[C@H](CCC(=O)O)[C@H]1CC[C@H]2[C@@H]3[C@H](O)C[C@@H]4C[C@H](O)CC[C@]4(C)[C@H]3CC[C@]12C` [chenodeoxycholate], the “Order of effectiveness in enhancing nasal absorption of insulin” value (from here on “Order of effectiveness”) in data set [2] was “deoxycholate≤chenodeoxycholate≤cholate≤ursodeoxychola te”.

For the molecule “insulin: insulin-containing tablets prepared according to Example 6 (human insulin)”, in [3] (setting [10]), the “Start of rise of blood glucose” value is “about 60 minutes”, the “Start of sharp drop of blood glucose” value is “about 15 minutes”, the “Time of low level of blood glucose” value is given as “about 40 minutes” and the “Time of return of blood glucose to normal levels” value is “about 120 minutes”. Further, the “Control of blood glucose levels” value in data set [3] (buccal delivery) is on record as “effective in controlling blood glucose levels”.

For `C[C@H](CCC(=O)O)[C@H]1CC[C@H]2[C@@H]3[C@H](O)C[C@@H]4C[C@H](O)CC[C@]4(C)[C@H]3C[C@H](O)[C@]12C` [cholate], the “Order of effectiveness” value in data set [2] is given as “deoxycholate≤chenodeoxycholate≤cholate≤ursodeoxychola te”.

Take “GLP-1(7-36)amide: gastrointestinal hormone processed from the preproglucagon gene; the naturally occurring form in humans”: the “Effect on glucose-induced insulin release” value in data set [4] is recorded as “potentiates glucose-induced insulin release”. In addition, the “Plasma GLP-1(7-36)amide level after the meal compared to placebo” value in data set [5] (after standard meal at 4.5 hours) is listed as “approximately the same as that of the placebo group”. In addition, the “Absorption through the buccal mucosa into the bloodstream” value in data set [5] (buccal bilayer tablet, 400 μg) is reported as “rapid absorption through the buccal mucosa into the bloodstream”. Moreover, in data set [5] (setting [11]), the “Start of rise of plasma GLP-1(7-36)amide level” value was ≤ 5 min, the “Time from which plasma GLP-1(7-36)amide tracks the placebo group” value is listed as “about 150 minutes”, the “Time of peak plasma GLP-1(7-36)amide level” value is recorded as “about 30 minutes” and the “Time until which plasma GLP-1(7-36)amide declines rapidly” value is recorded as “about 90 minutes”. In [5] (setting [12]), the AUC is 11343 pmol·min/L and 3278 pmol·min/L and 8024 pmol·min/L and 9113 pmol·min/L and 7250 pmol·min/L and 8753 pmol·min/L and 8410 pmol·min/L; the Bioavailability is 10.01% and 2.89% and 7.08% and 6.40% and 7.72% and 7.42%; the “Dose (second Dose column)” value is 11.91 nmol and 3.44 nmol and 9.57 nmol and 7.61 nmol and 9.19 nmol and 8.83 nmol. Also, the “Plasma glucagon level at its low compared to placebo” value in data set [6] (about 30 minutes, buccal bilayer tablet, 400 μg, FIG. 4) is listed as “significantly lower than the placebo group”. Also, in [6] (after the low, buccal bilayer tablet, 400 μg, FIG. 4), the “Plasma glucagon level at its peak compared to placebo” value is “significantly higher than the placebo group”. In data set [6] (setting [13]), the “Start of rise of plasma insulin level” value was 10 min, the “Time of decline of plasma insulin to normal” value is “about 50 minutes” and the “Time of peak plasma insulin level” value is on record as “about 20 minutes”. In [6] (setting [14]), the “Time from which plasma glucagon tracks the placebo group” value is “about 150 minutes”, the “Time of low of plasma glucagon level” value was “about 30 minutes” and the “Time of peak of plasma glucagon level” value was 60 to 75 min. Moreover, the “Blood glucose levels compared to placebo controls” value in data set [6] (buccal bilayer tablet, 400 μg, fasting) is on record as “significantly reduced blood glucose levels as compared to placebo controls”. Moreover, in [6] (setting [15]), the “Lowest blood glucose level” value is on record as “about 3 mmol/L”, the “Time by which blood glucose drops below that of the placebo group” value was ≤ 20 min, the “Time of lowest blood glucose level” value is “about 50 minutes” and the “Time of return of blood glucose to a normal level” value is “about 90 minutes”. Also, the “Blood glucose levels of the two groups after the meal” value in data set [6] (drug vs placebo, after standard meal at 4.5 hours) was “indistinguishable after the meal”. Moreover, the “Plasma insulin level at 15 minutes after administration” value in data set [6] (relative to normal, buccal bilayer tablet, 400 μg, FIG. 3) was “about three time normal”.

For Salmon Calcitonin, the “Buccal delivery into the bloodstream” value in [7] (bilayer tablet) is recorded as “delivered into the bloodstream of a warm-blooded animal by buccal delivery”. Also, the “ng Absorbed” value in data set [7] (individual dogs (Dog ID#), 2 buccal tablets, 1.27 or 0.71 cm^2) was 72,958 ng and 16,461 ng and 20,989 ng and 6,535 ng and 23,379 ng and 17,614 ng. In addition, the “AUC infinity, buccal” value in data set [7] (individual dogs (Dog ID#), 2 tablets, first figure of "buc/iv") was 139 and 66 and 84 and 26 and 64 and 38. Also, the “AUC infinity, iv” value in [7] (individual dogs (Dog ID#), second figure of "buc/iv") was 76 and 159 and 106 and 87.

As for `C[C@H](CCC(=O)O)[C@H]1CC[C@H]2[C@@H]3[C@@H](O)C[C@@H]4C[C@H](O)CC[C@]4(C)[C@H]3CC[C@]12C` [ursodeoxychola te], the “Order of effectiveness” value in data set [2] is given as “deoxycholate≤chenodeoxycholate≤cholate≤ursodeoxychola te”.

In the case of GLP-1, the Clearance in [8] was ~15 mL/min/kg; in data set [9] (subcutaneous, regression analysis of all the results), “about 40 ml/min/kg”. The “Bioavailability by subcutaneous administration relative to intravenous administration” value in data set [9] (fasting subjects) was found to be 38%.

The AUC is the area under the concentration-time curve, a measure of exposure.
